Data: patent publication US10238677B2, “Treatment of filarial diseases” (AbbVie Inc., priority 2015, dated 2019)
pEC50: −log10 of the molar value. Several values for one entry are separate records, joined by “and”; a condition that tells them apart may be missing. Equal entries are not always repeated.

Legend:
[1] = system: Wolbachia in Brugia malayi larvae; assay: Larval Brugia malayi mouse model, Wolbachia wsp qPCR; format: in vivo, BALB/c IL4Rα−/− mice; settings: vs median vehicle control
Description: […] At 14 days post-infection, larvae were recovered from the peritoneal cavity, counted, and length measured. Genomic DNA was extracted from individual worms (10/group) and quantification of the Wolbachia surface protein (wBm-wsp) gene copy numbers performed by quantitative PCR.
Treatment dose (mg/kg) shown in parentheses and duration stated in days (d). Abbreviations: DOX (doxycycline), bid (twice daily), qd (once daily), PO (oral), […]. Data in Table 2 are expressed as a reduction in Wolbachia load in comparison to the vehicle control group.
[…] […] Treatment dose (mg/kg) shown in parentheses and duration stated in days (d). Abbreviations: DOX (doxycycline), qd (once daily).

[2] = system: Wolbachia pipientis (Wolbachia strain wAlbB) in C6/36 Aedes albopictus cell line; assay: In vitro anti-Wolbachia cell-based screening assay; settings: Table 1A, anti-Wolbachia activity, 7 days incubation
Protocol: A C6/36 Aedes albopictus cell line infected with Wolbachia pipientis (Wolbachia strain wAlbB) derived from Aa23 A. albopictus cell line (O'Neill et al., 1997; Insect Mol Biol; Turner et al., (2006) J. Immunol. 7:1240-1249) was used to screen compounds. Cells were cultured in Leibovitz's L15 +L-glutamine supplemented with heat-inactivated Foetal Calf Serum (HI-FCS), non-essential amino acids and tryptose phosphate broth. Culture medium was filter-sterilized through a 0.2 μm filter and stored at 4° C. Compounds were provided as 10 mM stocks in DMSO, diluted to 50 μM working stock to give final concentration of 5 μM on the test plate. Concentrated stocks were frozen at −20° C.
Prior to use in the screening assay, cell cultures were sub-passaged (6 days prior) to provide ˜90% confluent cells on Day 0 of screening assay. On Day 0 (assay set-up), the medium was removed from the stock culture flask and replaced with fresh medium. The cells were detached by scraping and cell density was calculated using an automated cell counter. The cells were then diluted at working density and aliquoted at 90 μl to each well of a Cell Carrier 384 well plate (Perkin Elmer). Cell plates were incubated at 26° C.
Control solution (DMSO-medium) was dispensed at 10 μl per well for “untreated” wells. Test solution (Drug-DMSO) was also dispensed at 10 μl (from working plate) per well for “treated” wells. The plates were incubated at 26° C., inside plastic wallet in incubator, for 7 days.
On Day 7, 25 μl of staining medium/dye (SYTO 11, Life Technologies) was added to each sample well and allowed to stain for 15 minutes in the dark. All the medium was removed from each sample well without disturbing the cells and replaced with 100 μl of fresh medium. Plates were imaged on the Operetta High Content Imaging system (Perkin Elmer) and analyzed using texture analysis through Harmony software (Perkin Elmer). The cell-based screen and analysis are described in detail in Clare et al. (2014) J Biomol Screen.

[3] = system: Wolbachia in Litomosoides sigmodontis larvae; assay: Larval Litomosoides sigmodontis mouse model, Wolbachia ftsZ qPCR; format: in vivo, BALB/c mice; settings: vs vehicle control
Protocol: In this mouse model of filariasis (Hoerauf A, et al. (1999) Journal of Clinical Investigation 103(1):11-18), BALB/c mice (6-8 week old) were infected via natural larvae transmission, through the bite of infected tropical mites (Ornithonyssus bacoti), and treatment started on the day following infection. Anti-Wolbachia efficacy was measured by quantitative PCR analysis, using genomic DNA extracted from larvae, of the Wolbachia ftsZ gene, and expressed as a reduction in Wolbachia load in comparison to the vehicle control group. […] Thus, tylosin A effectively cleared Wolbachia from filarial larvae (Litomosoides sigmodontis) in a mouse model of filariasis when delivered parenterally (intraperitoneally), to a similar extent to doxycycline, with a shorter dosing regimen.

[4] = system: Wolbachia in adult Brugia malayi; assay: Adult Brugia malayi mouse model, Wolbachia wsp qPCR; format: in vivo, BALB/c CCR3−/− mice
Description: In an adult Brugia malayi mouse model treatment groups (BALB/c CCR3−/−mice, 6-8 week old) received compounds by oral delivery for 7-28 days beginning at 6-10 weeks post-infection intraperitoneal with Brugia malayi third-stage larvae. Following treatment, at 12 weeks post-infection, adult worms and released microfilariae were recovered from the peritoneal cavity, counted and staged for sex. Genomic DNA was extracted from individual adult worms (10/group) and quantification of the Wolbachia surface protein (wBm-wsp) performed by quantitative PCR.
Treatment dose (mg/kg/day) shown in parentheses and duration stated in days (d). MIN (minocycline), bid (twice daily), qd (once daily). Data in Table 4 are expressed as a reduction in Wolbachia load in comparison to the vehicle control group.
Treatment dose (mg/kg/day) shown in parentheses and duration stated in days (d). MIN (minocycline), bid (twice daily), qd (once daily).

[5] = system: Wolbachia in adult male Onchocerca ochengi; assay: Adult Onchocerca ochengi mouse model, Wolbachia:gst qPCR; format: in vivo, CB.17 SCID (BALB/c congenic) mice; settings: Table 8; 25 mg/kg bid oral 28 d; vs median vehicle control
Protocol: In this model, adult male Onchocerca ochengi (closest relative species to the human parasite causing river blindness, Onchocerca volvulus) are derived from cattle natural hosts and surgically implanted into the peritoneal cavity of CB.17 SCID (BALB/c congenic) mice under anaesthesia (Halliday et al Parasit. Vectors 2014 7:472). After 3 days following surgery, mice were treated by oral gavage for periods up to 4 weeks. Mice were necropsied for worm recoveries 6 weeks after start of treatment. Genomic DNA was extracted from individual worms (n=10/group) and quantification of the Wolbachia surface protein (wBm-wsp) and Onchocerca glutathione S-transferase (Ov-gst) gene copy numbers performed by quantitative PCR. Data is expressed as a reduction in Wolbachia:gst ratios in comparison to the vehicle control group.
Treatment dose (mg/kg/day) shown in parentheses and duration stated in days (d). DOX (doxycycline), qd (once daily) bid (twice daily).

[6] = system: Wolbachia in adult Brugia malayi; assay: Adult Brugia malayi jird model, Wolbachia load; format: in vivo, Mongolian jirds (Meriones unguiculatus); settings: Table 6; 200 mg/kg qd oral 21 d; vs median vehicle control
Protocol: (§1) In this model of adult filarial (macrofilariae) infection, Mongolian jirds (Meriones unguiculatus) were infected intraperitoneally with Brugia malayi third-stage larvae (Ash and Riley, (1970) J Parasitol. 56(5):969-73). Infected jirds were treated at +12-20 weeks post-infection for periods up to 6 weeks. Jirds were necropsied for worm recoveries. Adult worms were staged for sex and motile released microfilariae were counted. Genomic DNA was extracted from individual worms (10/group) and quantification of the Wolbachia surface protein (wBm-wsp) and Brugia malayi glutathione S-transferase (Bm-gst) gene copy numbers performed by quantitative PCR, and expressed as a reduction in Wolbachia load in comparison to the vehicle control group.
(§2) Treatment dose (mg/kg/day) shown in parentheses and duration stated in days (d). DOX (doxycycline), qd (once daily).

[7] = system: Brugia malayi microfilariae; assay: Adult Brugia malayi jird model, motile peritoneal microfilariae load; format: in vivo, Mongolian jirds (Meriones unguiculatus); settings: Table 7, 200 mg/kg qd oral 21 d
Protocol: as §1, §2

[8] = system: Loa loa microfilariae; assay: Loa loa microfilariae ex vivo counter-screen; format: cell-based; settings: for Motility (mean % vs baseline) / Survival (%): 64 μg/ml
Description: This ex vivo assay is used to assess direct Loa loa microfilaricidal effects of drug compounds. Bloodborne Loa loa microfilariae are generated from experimental infections of splenectomised baboons with the human stain of L. loa (Orihel et al, Trop Med Parasitol, 1985. 36: p.215). L. loa microfilariae were purified from venous blood samples by Percoll gradient centrifugation. Loa loa microfilariae were adjusted to a density of 0.5×10^4/ml and plated into 96-well plates in Dulbecco's Modified Eagle Medium (DMEM) containing 10% Foetal Calf Serum (FCS). Triplicate wells of Loa loa microfilariae were exposed to either ivermectin (64 μg/ml: positive control), compound 10 (0.018 and 0.18 μg/ml), compound 19 (0.11 and 1.11 μg/ml) or 0.1% DMSO vehicle control. Dose levels of compound 10 and compound 19 were matched to predictive Cmax and 10× Cmax human plasma concentrations based on PK-PD modeling. L. loa were cultured at 37° C./5% CO2 for +7 days and monitored daily with a semi-quantitative score applied to individual mf motility.

[9] = Table 2, 50 mg/kg qd PO 14 d, 50 mg/kg

## CC[C@H]1OC(=O)C[C@@H](O)[C@H](C)[C@@H](O[C@@H]2O[C@H](C)[C@@H](O[C@H]3C[C@@](C)(O)[C@@H](O)[C@H](C)O3)[C@H](N(C)C)[C@H]2O)[C@@H](CC=O)C[C@@H](C)C(=O)/C=C/C(C)=C/[C@@H]1CO[C@@H]1O[C@H](C)[C@@H](O)[C@@H](OC)[C@H]1OC [Tylosin A, 2-((4R,5S,6S,7R,9R,11E,13E,15R,16R)-6-(((2R,3R,4R,5S,6R)-5-(((2S,4R,5S,6S)-4,5-dihydroxy-4,6-dimethyltetrahydro-2H-pyran-2-yl)oxy)-4-(dimethylamino)-3-hydroxy-6-methyltetrahydro-2H-pyran-2-yl)oxy)-16-ethyl-4-hydroxy-15-((((2R,3R,4R,5R,6R)-5-hydroxy-3,4-dimethoxy-6-methyltetrahydro-2H-pyran-2-yl)oxy)methyl)-5,9,13-trimethyl-2,10-dioxooxacyclohexadeca-11,13-dien-7-yl)acetaldehyde]
[1]; Table 2, 50 mg/kg qd IP 14 d, 50 mg/kg
  % Wolbachia reduction: 99.9%
[1]; Table 2, 50 mg/kg qd IP 14 d, listed as TYL A, 50 mg/kg
  % Wolbachia reduction: 99.9%
[1]; [9]
  % Wolbachia reduction: 50.4%
[1]; Table 2, 50 mg/kg qd PO 14 d, listed as TYL A, 50 mg/kg
  % Wolbachia reduction: 50.4%
[2]; C6/36, 168 h
  pEC50: 7.44
[2]
  pEC50: 7.62 and 7.59
[3]; 7 days treatment, oral dosing
  Wolbachia reduction: 21.9%
[3]; 7 days treatment, parenteral (intraperitoneal) dosing
  Wolbachia reduction: 91.7%
[4]; Table 4, 50 mg/kg qd oral 14 d, vs median vehicle control
  % Wolbachia reduction: 0%

## CC[C@H]1OC(=O)C[C@@H](O)[C@H](C)[C@@H](O[C@@H]2O[C@H](C)[C@@H](O)[C@H](N(C)C)[C@H]2O)[C@@H](CC=O)C[C@@H](C)C(=O)/C=C/C(C)=C/[C@@H]1CO[C@@H]1O[C@H](C)[C@@H](O)[C@@H](OC)[C@H]1OC [Tylosin B, desmycosin]
[2]
  pEC50: 7.06

## CN(C)c1ccc(O)c2c1C[C@H]1C[C@H]3[C@H](N(C)C)C(O)=C(C(N)=O)C(=O)[C@@]3(O)C(O)=C1C2=O [minocycline]
[5]
  % Wolbachia reduction: 99.7%
[4]; Table 4, 25 mg/kg bid oral 28 d, vs median vehicle control, 25 mg/kg
  % Wolbachia reduction: 83.8%
[4]; Table 4, 25 mg/kg bid oral 28 d, vs median vehicle control, listed as MIN, 25 mg/kg
  % Wolbachia reduction: 83.8%
[4]; Table 5 dose escalation study, 25 mg/kg bid oral 28 d
  % Wolbachia reduction: 95.5%

## C[C@H]1c2cccc(O)c2C(=O)C2=C(O)[C@]3(O)C(=O)C(C(N)=O)=C(O)[C@@H](N(C)C)[C@@H]3[C@@H](O)[C@@H]21 [doxycycline]
[5]
  % Wolbachia reduction: 99.8%
[1]; Table 2, 50 mg/kg qd PO 7 d
  % Wolbachia reduction: 88.7%
[1]; [9]
  % Wolbachia reduction: 98.3%
[1]; Table 2, 50 mg/kg qd PO 14 d, listed as DOX, 50 mg/kg
  % Wolbachia reduction: 98.3%
[1]; Table 3, 50 mg/kg qd oral 7 d, 50 mg/kg
  % Wolbachia reduction: 77.4%
[1]; Table 3, 50 mg/kg qd oral 7 d, listed as DOX, 50 mg/kg
  % Wolbachia reduction: 77.4%
[1]; Table 3, 50 mg/kg qd oral 14 d, 50 mg/kg
  % Wolbachia reduction: 99.3%
[1]; Table 3, 50 mg/kg qd oral 14 d, listed as DOX, 50 mg/kg
  % Wolbachia reduction: 99.3%
[3]; 50 mg/kg/day for 14 days
  Wolbachia reduction: 99.9%
[6]
  % Wolbachia reduction: 99.1%
[7]
  % reduction in microfilariae: 90.5%

## ivermectin
[8]; exposure time 2 days
  Motility (mean % vs baseline): 5.71%
  Survival (%): 100%
[8]; exposure time 7 days
  Motility (mean % vs baseline): 0%
  Survival (%): 0%
[8]; ex vivo culture, period of 7 days
  Effect on Loa loa microfilariae motility (in words): completely immotile
[8]; in +2 days
  Reduction in motility: > 90%
